From patent EP4595983A1, “NANOPARTICLES FUNCTIONALISED WITH A STABILISING AGENT AND A TARGETING AGENT” (BXTA Nanotherapy Limited, priority 2024, dated 2025)
Peptide text beside a SMILES is read from it. * marks the point of attachment. Palmitoyl = CCCCCCCCCCCCCCCC(=O)*

Experiments:
DU145 parental cells = assay: Alamar blue viability assay; type: cell-based; conditions: pepducin exposure; comparative pepducin effect at both 300 nM and 600 nM
Procedure: (§1) Alamar blue viability assays assessed the impact of inhibiting CXCL8 pro-inflammatory signalling on the viability of various PCa cell lines (Figure 28). Three increasing concentrations of pepducin (150 nM, 300 nM and 600 nM) were assayed following a 6 h incubation. Following exposure to pepducin cells were washed in PBS and 10% Alamar blue solution added for 4 h. Fluorescence was then measured at 540 - 570 nm. […] (N = 4 +/- SEM).
(§2) Following exposure to pepducins, cells were washed in PBS and 10% Alamar blue solution added for 4 h. Fluorescence was then measured at 540 - 570 nm. […] (N=4 +/- SEM).

sh1102 cells = assay: Alamar blue viability assay; type: cell-based; conditions: pepducin exposure; comparative pepducin effect at both 300 nM and 600 nM
Procedure: as §1, §2

NT01 = assay: Alamar blue viability assay; type: cell-based; conditions: pepducin exposure; comparative pepducin effect at both 300 nM and 600 nM
Procedure: as §1, §2

PC3 cells = assay: Alamar blue viability assay; type: cell-based; conditions: 6 h; for cell viability (significance): 150 nM, 300 nM and 600 nM; for reduction in viability: 300 nM
Procedure: as §1

various PCa cell lines = assay: Alamar blue viability assay; type: cell-based; conditions: 150 nM, 300 nM and 600 nM, 6 h incubation
Procedure: as §1

[1] = Solubility (peptide characteristics); type: physicochemical

Molecule	cell viability / toxicity (DU145 parental cells)	cell viability / toxicity (sh1102 cells)	cell viability / toxicity (NT01)	cell viability (significance) (PC3 cells)	cell viability (various PCa cell lines)	reduction in viability (PC3 cells) [%]	Solubility [1]
scrambled control: scrambled control (corresponding to SEQ ID 7) (Palmitoyl-TRFLAKMHQGHKRC-NH2; SMILES CCCCCCCCCCCCCCCC(=O)N[C@H](C(=O)N[C@@H](CCCNC(=N)N)C(=O)N[C@@H](Cc1ccccc1)C(=O)N[C@@H](CC(C)C)C(=O)N[C@@H](C)C(=O)N[C@@H](CCCCN)C(=O)N[C@@H](CCSC)C(=O)N[C@@H](Cc1c[nH]cn1)C(=O)N[C@@H](CCC(N)=O)C(=O)NCC(=O)N[C@@H](Cc1c[nH]cn1)C(=O)N[C@@H](CCCCN)C(=O)N[C@@H](CCCNC(=N)N)C(=O)N[C@@H](CS)C(N)=O)[C@@H](C)O)	did not show any significant toxicity	did not show any significant toxicity	did not show any significant toxicity	no significant affects	did not significantly reduce cell viability	–	–
CCCCCCCCCCCCCCCC(=O)N[C@@H](CCCNC(=N)N)C(=O)N[C@H](C(=O)N[C@@H](CC(C)C)C(=O)N[C@@H](Cc1ccccc1)C(=O)N[C@@H](CCCCN)C(=O)N[C@@H](C)C(=O)N[C@@H](Cc1c[nH]cn1)C(=O)N[C@@H](CCSC)C(=O)NCC(=O)N[C@@H](CCC(N)=O)C(=O)N[C@@H](CCCCN)C(=O)N[C@@H](Cc1c[nH]cn1)C(=O)N[C@@H](CCCNC(=N)N)C(N)=O)[C@@H](C)O [comparative pepducin] (Palmitoyl-RTLFKAHMGQKHR-NH2)	significantly reduced cell viability	significantly reduced cell viability	significantly reduced cell viability	–	did not significantly reduce cell viability	25	–
CCCCCCCCCCCCCCCC(=O)N[C@@H](CCCNC(=N)N)C(=O)N[C@H](C(=O)N[C@@H](CC(C)C)C(=O)N[C@@H](Cc1ccccc1)C(=O)N[C@@H](CCCCN)C(=O)N[C@@H](C)C(=O)N[C@@H](Cc1c[nH]cn1)C(=O)N[C@@H](CCSC)C(=O)NCC(=O)N[C@@H](CCC(N)=O)C(=O)N[C@@H](CCCCN)C(=O)N[C@@H](Cc1c[nH]cn1)C(=O)N[C@@H](CCCNC(=N)N)C(=O)N[C@@H](CS)C(N)=O)[C@@H](C)O [SEQ ID 3, Pal-RTLFKAHMGQKHRC-NH2] (Palmitoyl-RTLFKAHMGQKHRC-NH2)	did not show any significant toxicity	did not show any significant toxicity	did not show any significant toxicity	no significant reduction in viability	did not significantly reduce cell viability	8	1:4 (Acetonitirile:H2O)
